Each structure is given as a SMILES string.

Format in all cases: functional
The species named for one assay is Homo sapiens. Nature of the assay: Concentration required for maximal in vitro inhibition of aggregation of human platelet rich plasma (hPRP).
Assay [1] has as its system Canis familiaris. Nature of the assay: Percent inhibition of aggregation of platelet rich plasma at a dose of 0.025 mg/kg, iv, in canine model at 24 hr. The conditions noted are these: Canis lupus familiaris.
The subject of assay [2] is Canis familiaris. Nature of the assay: Percent inhibition of ex vivo platelet aggregation of rich plasma at a dose of 0.025 mg/kg, iv, in canine model at 5 hrs. The conditions noted are these: Canis lupus familiaris.
Assay [3] concerns Canis familiaris. Nature of the assay: Percent inhibition of aggregation of platelet rich plasma at a dose of 0.025 mg/kg, iv, in canine model after 30 min. The note with it: Canis lupus familiaris, 0.5 h.
Assay [4] deals with Canis familiaris. Nature of the assay: Percent inhibition of aggregation of platelet rich plasma at a dose of 0.025 mg/kg, iv, in canine model at 5 hrs. The note with it: Canis lupus familiaris.

Regarding `COc1ccccc1CNC(=N)c1ccc(C2=NO[C@@H](CC(=O)NC[C@H](NS(=O)(=O)c3c(C)noc3C)C(=O)O)C2)cc1`, the IC50 – broadly, the midpoint of a concentration-inhibition curve – in the assay filed under Homo sapiens came out at 55 nM.
`Cc1ccccc1S(=O)(=O)N[C@@H](CNC(=O)C[C@H]1CC(c2ccc(C(=N)N)cc2)=NO1)C(=O)O`: the midpoint of inhibition in the assay filed under Homo sapiens, the IC50, lay at 54 nM.
With `N/C(=N/Cc1cccc(F)c1)c1ccc(C2=NOC(CC(=O)NCCC(=O)O)C2)cc1` (centres undefined), the IC50 in the assay filed under Homo sapiens stood at 12 nM.
In the assay filed under Homo sapiens, `N=C(N)c1ccc(C2=NO[C@@H](CC(=O)NCCC(=O)O)C2)cc1` displayed an IC50 of 60 nM.
Compound `CCCCCNC(=N)c1ccc(C2=NOC(CC(=O)NCCC(=O)O)C2)cc1` (centres undefined) had an IC50 in the assay filed under Homo sapiens of 300 nM.
On to `Cc1cccc(S(=O)(=O)N[C@@H](CNC(=O)C[C@H]2CC(c3ccc(C(=N)N)cc3)=NO2)C(=O)O)c1`, for which, in the assay filed under Homo sapiens, the half-inhibitory concentration (IC50) is 50 nM.
In turn, `COc1ccccc1CNC(=N)c1ccc(C2=NO[C@@H](CC(=O)NC[C@H](NS(=O)(=O)c3ccccc3C)C(=O)O)C2)cc1` displayed an IC50 in the assay listed under Homo sapiens of 40 nM. In addition, 0.025 mg/kg produced 80% inhibition in vivo with Canis familiaris [1].
Turning to `N/C(=N/Cc1ccccc1)c1ccc(C2=NO[C@@H](CC(=O)NCCC(=O)O)C2)cc1`, half-maximal inhibition in the assay filed under Homo sapiens (IC50) required 87 nM.
Take `CCNC(=N)c1ccc(C2=NO[C@@H](CC(=O)NC[C@H](NS(=O)(=O)c3ccccc3C)C(=O)O)C2)cc1`: the inhibition in vivo (in general, the drop in the measured response relative to a control, in per cent) at 0.025 mg/kg with Canis familiaris [2] was 40%. In the assay filed under Homo sapiens, this compound registered an IC50 of 43 nM.
With `CCNC(=N)c1ccc(C2=NOC(CC(=O)NCCC(=O)O)C2)cc1` (centres undefined), the inhibition in vivo at 0.025 mg/kg in the assay with Canis familiaris [3] was determined as 70%; with Canis familiaris [4], 20%.
The compound `CCCCNC(=N)c1ccc(C2=NO[C@@H](CC(=O)NC[C@H](NS(=O)(=O)c3ccccc3C)C(=O)O)C2)cc1` registered an IC50 in the assay filed under Homo sapiens of 16 nM.
`CCCCNC(=N)c1ccc(C2=NO[C@@H](CC(=O)NC[C@H](NC(=O)OCCCC)C(=O)O)C2)cc1`: the IC50 in the assay filed under Homo sapiens was found to be 62 nM.
In the assay filed under Homo sapiens, `CCCNC(=N)c1ccc(C2=NOC(CC(=O)NCCC(=O)O)C2)cc1` (centres undefined) showed an IC50 of 120 nM.
`COc1ccccc1CNC(=N)c1ccc(C2=NOC(CC(=O)NCCC(=O)O)C2)cc1` (centres undefined) yielded an IC50 in the assay filed under Homo sapiens of 32 nM.
In turn, `N/C(=N/Cc1ccccc1)c1ccc(C2=NOC(CC(=O)NCCC(=O)O)C2)cc1` (centres undefined) gave an IC50 in the assay filed under Homo sapiens of 200 nM.
For `CC(C)CCNC(=N)c1ccc(C2=NOC(CC(=O)NCCC(=O)O)C2)cc1` (centres undefined), the IC50 in the assay filed under Homo sapiens was found to be 1300 nM.
In the case of `Cc1noc(C)c1S(=O)(=O)N[C@@H](CNC(=O)C[C@H]1CC(c2ccc(C(=N)NCc3cccc(F)c3)cc2)=NO1)C(=O)O`, the midpoint of inhibition in the assay listed under Homo sapiens, the IC50, lay at 55 nM.
The same measure, in the same setting: the figure for `CCCCNC(=N)c1ccc(C2=NOC(CC(=O)NCCC(=O)O)C2)cc1` (centres undefined) is 20 nM; for `CCCCOC(=O)N[C@@H](CNC(=O)C[C@H]1CC(c2ccc(C(=N)NCC)cc2)=NO1)C(=O)O` it is 82 nM.
Consider `N=C(N)c1ccc(C2=NOC(CC(=O)NCCC(=O)O)C2)cc1` (centres undefined), for which, in the assay filed under Homo sapiens, half-maximal inhibition (IC50) required 240 nM.
On to `CCNC(=N)c1ccc(C2=NO[C@@H](CC(=O)NC[C@H](NS(=O)(=O)c3cccc(C)c3)C(=O)O)C2)cc1`, for which the IC50 in the assay filed under Homo sapiens came out at 51 nM.

Source of the values: ChEMBL document CHEMBL1133917, “Synthesis and pharmacology of modified amidine isoxazoline glycoprotein IIb/IIIa receptor antagonists” (Bioorg Med Chem Lett, 2001).
